Assay results published in US20200354426A1 (MEDIMMUNE LIMITED, priority 2016, published 2020).
Numbered stars: 1 amine (or outer) side, 2 acyl side, 3 side chain; on linkers, the order of the positions; unused ones are H or OH. Side chains are listed from the residue outwards. Peptide text beside a SMILES is read from it. * marks the point of attachment. γGlu = O=C(O)[C@H](CCC(=O)[*:2])N[*:1]; Palmitoyl = CCCCCCCCCCCCCCCC(=O)*; Ahx = NCCCCCC(=O)O

Key:
Assay in all cases: cAMP activity assay in assay medium (assay 1)
Format in all cases: cell-based
Human GLP1R = Human GLP1R (Homo sapiens, UniProt P43220); set-up: expressed in transfected cells; conditions: assay medium; Table 4; read-out: hGLP1R EC50
Chain of Human GLP1R (P43220 24-463): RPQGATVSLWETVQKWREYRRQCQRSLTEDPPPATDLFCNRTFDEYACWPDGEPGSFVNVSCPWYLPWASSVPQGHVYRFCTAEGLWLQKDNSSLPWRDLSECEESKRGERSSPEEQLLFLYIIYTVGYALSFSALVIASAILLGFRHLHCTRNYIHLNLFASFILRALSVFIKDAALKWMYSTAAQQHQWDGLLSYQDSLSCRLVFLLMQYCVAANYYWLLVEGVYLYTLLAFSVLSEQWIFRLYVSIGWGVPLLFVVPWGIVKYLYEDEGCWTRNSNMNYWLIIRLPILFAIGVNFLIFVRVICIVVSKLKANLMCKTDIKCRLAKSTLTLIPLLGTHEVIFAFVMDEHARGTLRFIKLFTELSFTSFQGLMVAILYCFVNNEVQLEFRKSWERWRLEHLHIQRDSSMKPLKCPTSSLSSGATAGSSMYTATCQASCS
Excerpt: (§1) Biological Activity of Peptides in Cell-Based cAMP Activity Assay (Assay 1):
(§2) All sample dilutions were made in duplicate.

Human GlucR = target: T1, Human GlucR (Homo sapiens, UniProt P47871); conditions: assay medium; Table 4; read-out: hGlucR EC50
T1 construct: expressed in transfected cells
T1 sequence (P47871 26-477): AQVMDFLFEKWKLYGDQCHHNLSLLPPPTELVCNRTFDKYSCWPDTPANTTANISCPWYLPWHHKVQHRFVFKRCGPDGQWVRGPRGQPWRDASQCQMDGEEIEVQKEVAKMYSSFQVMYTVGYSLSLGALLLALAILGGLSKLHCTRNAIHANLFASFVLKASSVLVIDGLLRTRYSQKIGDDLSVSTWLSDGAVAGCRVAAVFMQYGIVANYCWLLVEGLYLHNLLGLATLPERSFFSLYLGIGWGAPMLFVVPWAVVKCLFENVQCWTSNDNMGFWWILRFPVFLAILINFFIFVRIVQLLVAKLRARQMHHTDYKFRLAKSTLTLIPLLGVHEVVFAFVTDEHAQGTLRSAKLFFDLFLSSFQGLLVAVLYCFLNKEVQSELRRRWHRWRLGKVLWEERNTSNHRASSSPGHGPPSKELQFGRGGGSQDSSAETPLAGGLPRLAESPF
Excerpt: as §1, §2

Human GIPr = target: T2, Human GIPr (Homo sapiens, UniProt P48546); conditions: assay medium; Table 4; read-out: hGIPR EC50
T2 construct: expressed in transfected cells
T2 sequence (P48546 22-466): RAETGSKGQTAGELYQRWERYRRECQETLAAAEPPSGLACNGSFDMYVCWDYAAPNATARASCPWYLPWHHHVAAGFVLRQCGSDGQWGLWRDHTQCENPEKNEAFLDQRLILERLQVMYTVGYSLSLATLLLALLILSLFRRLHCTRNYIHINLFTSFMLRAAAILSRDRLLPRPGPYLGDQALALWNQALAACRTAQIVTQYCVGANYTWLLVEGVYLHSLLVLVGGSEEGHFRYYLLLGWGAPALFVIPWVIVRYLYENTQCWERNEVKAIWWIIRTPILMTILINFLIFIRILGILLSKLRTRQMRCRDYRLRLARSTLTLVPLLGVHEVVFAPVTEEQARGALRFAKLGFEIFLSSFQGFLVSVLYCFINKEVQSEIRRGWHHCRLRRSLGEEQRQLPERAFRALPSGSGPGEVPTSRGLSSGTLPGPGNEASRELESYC
Excerpt: as §1, §2

| Structure (SMILES) | EC50 (Human GLP1R) [pM] | EC50 (Human GlucR) [pM] | EC50 (Human GIPr) [pM] |
| --- | --- | --- | --- |
| CCCCCCCCCCCCCCCC(=O)N[C@@H](CCC(=O)NCCCC[C@H](NC(=O)[C@H](CO)NC(=O)[C@H](CC(=O)O)NC(=O)[C@H](CC(C)C)NC(=O)[C@H](Cc1ccc(O)cc1)NC(=O)[C@H](CCCNC(=N)N)NC(=O)[C@H](CO)NC(=O)[C@H](Cc1ccc(O)cc1)NC(=O)[C@H](CC(=O)O)NC(=O)[C@H](CO)NC(=O)[C@@H](NC(=O)[C@H](Cc1ccccc1)NC(=O)[C@@H](NC(=O)CNC(=O)[C@H](CCC(N)=O)NC(=O)[C@H](CO)NC(=O)[C@@H](N)Cc1c[nH]cn1)[C@@H](C)O)[C@@H](C)O)C(=O)N[C@@H](CCCNC(=N)N)C(=O)N[C@@H](C)C(=O)N[C@@H](CCCNC(=N)N)C(=O)N[C@@H](CC(=O)O)C(=O)N[C@@H](Cc1ccccc1)C(=O)N[C@H](C(=O)N[C@@H](CCC(=O)O)C(=O)N[C@@H](Cc1c[nH]c2ccccc12)C(=O)N[C@@H](CC(C)C)C(=O)N[C@H](C(=O)N[C@@H](C)C(=O)NCC(=O)NCC(N)=O)C(C)C)C(C)C)C(=O)O [g823] (H-HSQGTFTSDYSRYLDSK([γGlu-Palmitoyl])RARDFVEWLVAGG-NH2; N-terminus assumed) | 97.3 | 9.48 | 84200 |
| CCCCCCCCCCCCCCCC(=O)N[C@@H](CCC(=O)NCCCC[C@H](NC(=O)[C@H](Cc1ccc(O)cc1)NC(=O)[C@H](CCCCN)NC(=O)[C@H](CO)NC(=O)[C@H](Cc1ccc(O)cc1)NC(=O)[C@H](CC(=O)O)NC(=O)[C@H](CO)NC(=O)[C@@H](NC(=O)[C@H](Cc1ccccc1)NC(=O)[C@@H](NC(=O)CNC(=O)[C@H](CCC(N)=O)NC(=O)[C@H](CO)NC(=O)[C@@H](N)Cc1c[nH]cn1)[C@@H](C)O)[C@@H](C)O)C(=O)N[C@@H](CC(=O)O)C(=O)N[C@@H](CO)C(=O)N[C@@H](CCCNC(=N)N)C(=O)N[C@@H](CCCNC(=N)N)C(=O)N[C@@H](C)C(=O)N[C@@H](CCCNC(=N)N)C(=O)N[C@@H](CC(=O)O)C(=O)N[C@@H](Cc1ccccc1)C(=O)N[C@H](C(=O)N[C@@H](CCC(=O)O)C(=O)N[C@@H](Cc1c[nH]c2ccccc12)C(=O)N[C@@H](CC(C)C)C(=O)N[C@@H](CCC(=O)O)C(=O)N[C@@H](C)C(=O)NCC(=O)NCC(N)=O)C(C)C)C(=O)O [g824] (H-HSQGTFTSDYSKYK([γGlu-Palmitoyl])DSRRARDFVEWLEAGG-NH2; N-terminus assumed) | 47.1 | 1.05 | 57400 |
| CCCCCCCCCCCCCCCC(=O)NCCCCCC(=O)NCCCC[C@H](NC(=O)[C@H](CO)NC(=O)[C@H](CC(=O)O)NC(=O)[C@H](CC(C)C)NC(=O)[C@H](Cc1ccc(O)cc1)NC(=O)[C@H](CCC(=O)O)NC(=O)[C@H](CO)NC(=O)[C@H](Cc1ccc(O)cc1)NC(=O)[C@H](CC(=O)O)NC(=O)[C@H](CO)NC(=O)[C@@H](NC(=O)[C@H](Cc1ccccc1)NC(=O)[C@@H](NC(=O)CNC(=O)[C@H](CCC(N)=O)NC(=O)[C@H](CO)NC(=O)[C@@H](N)Cc1c[nH]cn1)[C@@H](C)O)[C@@H](C)O)C(=O)N[C@@H](CCCNC(=N)N)C(=O)N[C@@H](C)C(=O)N[C@@H](CCCNC(=N)N)C(=O)N[C@@H](CC(=O)O)C(=O)N[C@@H](Cc1ccccc1)C(=O)N[C@H](C(=O)N[C@@H](C)C(=O)N[C@@H](Cc1c[nH]c2ccccc12)C(=O)N[C@@H](CC(C)C)C(=O)N[C@@H](CCC(=O)O)C(=O)N[C@@H](CCCNC(=N)N)C(=O)NCC(=O)NCC(=O)O)C(C)C [g826] (H-HSQGTFTSDYSEYLDSK([Ahx-Palmitoyl])RARDFVAWLERGG-OH; N-terminus assumed) | 29.3 | 4.23 | 58000 |
| CCCCCCCCCCCCCCCC(=O)N[C@@H](CCC(=O)NCCCC[C@H](NC(=O)[C@H](CO)NC(=O)[C@H](CC(=O)O)NC(=O)[C@H](CC(C)C)NC(=O)[C@H](Cc1ccc(O)cc1)NC(=O)[C@H](CCC(=O)O)NC(=O)[C@H](CO)NC(=O)[C@H](Cc1ccc(O)cc1)NC(=O)[C@H](CC(=O)O)NC(=O)[C@H](CO)NC(=O)[C@@H](NC(=O)[C@H](Cc1ccccc1)NC(=O)[C@@H](NC(=O)CNC(=O)[C@H](CCC(N)=O)NC(=O)[C@H](CO)NC(=O)[C@@H](N)Cc1c[nH]cn1)[C@@H](C)O)[C@@H](C)O)C(=O)N[C@@H](CCCNC(=N)N)C(=O)N[C@@H](C)C(=O)N[C@@H](CCCNC(=N)N)C(=O)N[C@@H](CC(=O)O)C(=O)N[C@@H](Cc1ccccc1)C(=O)N[C@H](C(=O)N[C@@H](CCC(=O)O)C(=O)N[C@@H](Cc1c[nH]c2ccccc12)C(=O)N[C@@H](CC(C)C)C(=O)N[C@H](C(=O)N[C@@H](C)C(=O)NCC(=O)NCC(N)=O)C(C)C)C(C)C)C(=O)O [g835] (H-HSQGTFTSDYSEYLDSK([γGlu-Palmitoyl])RARDFVEWLVAGG-NH2; N-terminus assumed) | 191 | 424 | 97200 |
| CCCCCCCCCCCCCCCC(=O)N[C@@H](CCC(=O)NCCCC[C@H](NC(=O)[C@H](Cc1ccc(O)cc1)NC(=O)[C@H](CCCCN)NC(=O)[C@H](CO)NC(=O)[C@H](Cc1ccc(O)cc1)NC(=O)[C@H](CC(=O)O)NC(=O)[C@H](CO)NC(=O)[C@@H](NC(=O)[C@H](Cc1ccccc1)NC(=O)[C@@H](NC(=O)CNC(=O)[C@H](CCC(N)=O)NC(=O)[C@H](CO)NC(=O)[C@@H](N)Cc1c[nH]cn1)[C@@H](C)O)[C@@H](C)O)C(=O)N[C@@H](CC(=O)O)C(=O)N[C@@H](CO)C(=O)N[C@@H](CCC(=O)O)C(=O)N[C@@H](CCCNC(=N)N)C(=O)N[C@@H](C)C(=O)N[C@@H](CCCNC(=N)N)C(=O)N[C@@H](CC(=O)O)C(=O)N[C@@H](Cc1ccccc1)C(=O)N[C@H](C(=O)N[C@@H](CCC(=O)O)C(=O)N[C@@H](Cc1c[nH]c2ccccc12)C(=O)N[C@@H](CC(C)C)C(=O)N[C@@H](CCC(=O)O)C(=O)N[C@@H](C)C(=O)NCC(=O)NCC(N)=O)C(C)C)C(=O)O [g836] (H-HSQGTFTSDYSKYK([γGlu-Palmitoyl])DSERARDFVEWLEAGG-NH2; N-terminus assumed) | 124 | 15.5 | 100000 |

The next lines start with the values.

| EC50 (Human GLP1R) [pM] | EC50 (Human GlucR) [pM] | EC50 (Human GIPr) [pM] | Structure (SMILES) |
| --- | --- | --- | --- |
| 467 | 213 | 114000 | CCCCCCCCCCCCCCCC(=O)N[C@@H](CCC(=O)NCCCC[C@H](NC(=O)[C@H](CO)NC(=O)[C@H](CC(=O)O)NC(=O)[C@H](CC(C)C)NC(=O)[C@H](Cc1ccc(O)cc1)NC(=O)[C@H](CCC(=O)O)NC(=O)[C@H](CO)NC(=O)[C@H](Cc1ccc(O)cc1)NC(=O)[C@H](CC(=O)O)NC(=O)[C@H](CO)NC(=O)[C@@H](NC(=O)[C@H](Cc1ccccc1)NC(=O)[C@@H](NC(=O)CNC(=O)[C@H](CCC(N)=O)NC(=O)[C@H](CO)NC(=O)[C@@H](N)Cc1c[nH]cn1)[C@@H](C)O)[C@@H](C)O)C(=O)N[C@@H](CCCNC(=N)N)C(=O)N[C@@H](C)C(=O)N[C@@H](CCCNC(=N)N)C(=O)N[C@@H](CC(=O)O)C(=O)N[C@@H](Cc1ccccc1)C(=O)N[C@H](C(=O)N[C@@H](C)C(=O)N[C@@H](Cc1c[nH]c2ccccc12)C(=O)N[C@@H](CC(C)C)C(=O)N[C@@H](CCC(=O)O)C(=O)N[C@@H](C)C(=O)NCC(=O)NCC(N)=O)C(C)C)C(=O)O [g837] (H-HSQGTFTSDYSEYLDSK([γGlu-Palmitoyl])RARDFVAWLEAGG-NH2; N-terminus assumed) |
| 23.7 | 5.68 | 84300 | CCCCCCCCCCCCCCCC(=O)NCCCCCC(=O)NCCCC[C@H](NC(=O)[C@H](CO)NC(=O)[C@H](CC(=O)O)NC(=O)[C@H](CC(C)C)NC(=O)[C@H](Cc1ccc(O)cc1)NC(=O)[C@H](CCC(=O)O)NC(=O)[C@H](CO)NC(=O)[C@H](Cc1ccc(O)cc1)NC(=O)[C@H](CC(=O)O)NC(=O)[C@H](CO)NC(=O)[C@@H](NC(=O)[C@H](Cc1ccccc1)NC(=O)[C@@H](NC(=O)CNC(=O)[C@H](CCC(N)=O)NC(=O)[C@H](CO)NC(=O)[C@@H](N)Cc1c[nH]cn1)[C@@H](C)O)[C@@H](C)O)C(=O)N[C@@H](CCCNC(=N)N)C(=O)N[C@@H](C)C(=O)N[C@@H](CCCNC(=N)N)C(=O)N[C@@H](CC(=O)O)C(=O)N[C@@H](Cc1ccccc1)C(=O)N[C@H](C(=O)N[C@@H](C)C(=O)N[C@@H](Cc1c[nH]c2ccccc12)C(=O)N[C@@H](CC(C)C)C(=O)N[C@@H](CCC(=O)O)C(=O)N[C@@H](C)C(=O)NCC(=O)NCC(N)=O)C(C)C [g838] (H-HSQGTFTSDYSEYLDSK([Ahx-Palmitoyl])RARDFVAWLEAGG-NH2; N-terminus assumed) |
| 51.2 | 8.31 | 88300 | CCCCCCCCCCCCCCCC(=O)N[C@@H](CCC(=O)NCCCC[C@H](NC(=O)[C@H](CCCNC(=N)N)NC(=O)[C@H](CO)NC(=O)[C@H](Cc1ccc(O)cc1)NC(=O)[C@H](CC(=O)O)NC(=O)[C@H](CO)NC(=O)[C@@H](NC(=O)[C@H](Cc1ccccc1)NC(=O)[C@@H](NC(=O)CNC(=O)[C@H](CCC(N)=O)NC(=O)[C@H](CO)NC(=O)[C@@H](N)Cc1c[nH]cn1)[C@@H](C)O)[C@@H](C)O)C(=O)N[C@@H](CC(C)C)C(=O)N[C@@H](CC(=O)O)C(=O)N[C@@H](CO)C(=O)N[C@@H](CCC(=O)O)C(=O)N[C@@H](CCCNC(=N)N)C(=O)N[C@@H](C)C(=O)N[C@@H](CCCNC(=N)N)C(=O)N[C@@H](CC(=O)O)C(=O)N[C@@H](Cc1ccccc1)C(=O)N[C@H](C(=O)N[C@@H](C)C(=O)N[C@@H](Cc1c[nH]c2ccccc12)C(=O)N[C@@H](CC(C)C)C(=O)N[C@H](C(=O)N[C@@H](C)C(=O)NCC(=O)NCC(=O)O)C(C)C)C(C)C)C(=O)O [g842] (H-HSQGTFTSDYSRK([γGlu-Palmitoyl])LDSERARDFVAWLVAGG-OH; N-terminus assumed) |
